In the supplement of paper PMC10307832:

Key:
Experiment in all cases: relative viability (nuclei count vs DMSO), 5 days (fraction); higher = more cells survive
Trametinib + Phenformin = compound: CC(=O)Nc1cccc(-n2c(=O)n(C3CC3)c(=O)c3c(Nc4ccc(I)cc4F)n(C)c(=O)c(C)c32)c1 [Trametinib] + N=C(N)NC(=N)NCCc1ccccc1 [Phenformin] (partner 250 µM)
Procedure, shortened: (§1)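 Relative viability equals treated-well nuclei counts divided by vehicle-well nuclei counts. Counts came from 4× images of lung cancer cell lines grown in 1536-well plates for 5 days after pin-tool dosing on the day after seeding. Dosing used one drug alone or a fixed anchor-drug dose plus five library-drug doses (not always all listed) in √10 steps, and values are medians of duplicate plates.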

Trametinib + Vorinostat = compound: CC(=O)Nc1cccc(-n2c(=O)n(C3CC3)c(=O)c3c(Nc4ccc(I)cc4F)n(C)c(=O)c(C)c32)c1 [Trametinib] + O=C(CCCCCCC(=O)Nc1ccccc1)NO [Vorinostat] (partner 1 µM)
Procedure, shortened: as §1

[1] = compound: CN1C=C(C2=CC=CC=C21)/C=C\3/C4=C(C=CC=N4)NC3=O + CCNC(=O)c1noc(-c2cc(C(C)C)c(O)cc2O)c1-c1ccc(CN2CCOCC2)cc1 [Luminespib] (partner 0.01 µM)
Procedure, shortened: as §1

[2] = compound: CN1C=C(C2=CC=CC=C21)/C=C\3/C4=C(C=CC=N4)NC3=O + N=C(N)NC(=N)NCCc1ccccc1 [Phenformin] (partner 250 µM)
Procedure, shortened: as §1

Cell Line	relative viability (Trametinib + Phenformin; first compound 0.0025 µM)	relative viability (Trametinib + Phenformin; first compound 0.007906 µM)	relative viability (Trametinib + Phenformin; first compound 0.025 µM)	relative viability (Trametinib + Phenformin; first compound 0.07906 µM)	relative viability (Trametinib + Phenformin; first compound 0.25 µM)	relative viability (Trametinib + Vorinostat; first compound 0.0025 µM)	relative viability (Trametinib + Vorinostat; first compound 0.007906 µM)	relative viability (Trametinib + Vorinostat; first compound 0.025 µM)	relative viability (Trametinib + Vorinostat; first compound 0.07906 µM)	relative viability (Trametinib + Vorinostat; first compound 0.25 µM)	relative viability ([1]; first compound 0.02 µM)	relative viability ([1]; first compound 0.06325 µM)	relative viability ([1]; first compound 0.2 µM)	relative viability ([1]; first compound 0.6325 µM)	relative viability ([1]; first compound 2 µM)	relative viability ([2]; first compound 0.02 µM)	relative viability ([2]; first compound 0.06325 µM)	relative viability ([2]; first compound 0.2 µM)	relative viability ([2]; first compound 0.6325 µM)	relative viability ([2]; first compound 2 µM)
NCI-H2023	0.34	0.393	0.349	0.289	0.167	0.683	0.477	0.472	0.541	0.136	0.899	0.602	0.763	0.914	0.527	0.395	0.376	0.361	0.409	0.418
SW 900	0.579	0.532	0.457	0.487	0.143	0.44	0.545	0.439	0.456	0.138	0.191	0.186	–	0.165	0.176	0.468	0.434	–	0.589	0.809
HOP-62	0.692	0.643	0.441	0.331	0.209	0.648	0.467	0.277	0.301	0.106	0.783	0.986	0.802	0.946	0.957	0.645	0.678	0.72	0.664	0.752
H3255	0.346	0.368	0.342	0.297	0.263	0.903	0.799	0.509	0.709	0.905	1.03	1	0.786	0.86	0.77	0.384	0.36	0.341	0.327	0.366
NCI-H1734	0.289	0.292	0.217	0.245	0.206	0.812	0.802	–	0.747	0.356	0.212	0.208	–	0.203	0.866	0.412	0.354	–	0.376	0.373
SK-MES-1	0.64	0.64	0.481	0.43	0.287	0.994	0.894	0.744	0.511	0.337	0.777	0.557	0.62	0.684	0.699	0.653	0.634	0.715	0.672	0.624
NCI-H1792	0.309	0.206	0.071	0.157	0.0553	–	–	–	–	–	0.447	0.447	–	0.413	0.643	0.442	0.245	–	0.297	0.237
EKVX	0.234	0.209	0.198	0.192	0.24	0.63	0.442	0.365	0.405	0.321	0.79	0.784	0.821	0.865	0.868	0.206	0.227	0.226	0.201	0.236
EPLC-272H	0.273	0.194	0.171	0.15	0.128	0.455	0.368	0.233	0.148	0.162	0.156	0.309	0.169	–	0.383	0.287	0.244	0.242	–	0.3
LK-2	0.433	0.649	0.379	0.35	0.142	0.346	0.288	0.164	0.344	0.326	–	–	–	0.189	0.186	–	–	–	0.56	0.546
CAL-12T	0.457	0.376	0.295	0.267	0.229	0.728	0.637	0.394	0.41	0.265	0.22	0.561	0.48	0.432	0.381	0.507	0.537	0.613	0.612	0.601
NCI-H322M	0.679	0.577	0.525	0.501	0.43	0.797	0.691	0.62	0.557	0.555	0.812	0.76	0.798	0.946	0.929	0.689	0.769	0.642	0.838	0.777
NCI-H1650	0.388	0.538	0.495	0.325	0.151	0.502	0.625	0.572	0.45	0.288	0.19	0.183	0.195	0.203	0.207	0.401	0.451	0.362	0.345	0.397
NCI-H2342	0.49	0.549	–	0.403	0.56	0.727	0.793	0.488	0.685	0.68	0.685	0.743	0.6	0.757	0.669	0.623	0.641	0.486	0.57	0.505
SW 1573	0.29	0.279	0.255	0.156	0.15	0.755	0.663	0.437	0.491	0.278	0.235	0.279	0.327	0.181	0.243	0.394	0.344	0.436	0.352	0.441
NCI-H2405	0.326	0.316	0.28	0.202	0.251	0.985	0.853	0.649	–	0.601	0.809	0.603	0.629	0.738	0.74	0.416	0.381	0.366	0.328	0.4
LCLC-103H	0.319	0.349	0.318	0.269	0.307	0.808	0.636	0.699	0.631	0.588	0.933	0.809	0.934	1.07	1.17	0.303	0.256	0.317	0.322	0.331
HCC-44	0.249	0.181	0.187	0.0805	0.0783	1.08	1.06	1.09	0.909	0.808	1.03	0.925	–	1.02	1.02	0.187	0.122	0.115	0.135	0.136

Cell Line	relative viability (Trametinib + Phenformin; first compound 0.0025 µM)	relative viability (Trametinib + Phenformin; first compound 0.007906 µM)	relative viability (Trametinib + Phenformin; first compound 0.025 µM)	relative viability (Trametinib + Phenformin; first compound 0.07906 µM)	relative viability (Trametinib + Phenformin; first compound 0.25 µM)	relative viability (Trametinib + Vorinostat; first compound 0.0025 µM)	relative viability (Trametinib + Vorinostat; first compound 0.007906 µM)	relative viability (Trametinib + Vorinostat; first compound 0.025 µM)	relative viability (Trametinib + Vorinostat; first compound 0.07906 µM)	relative viability (Trametinib + Vorinostat; first compound 0.25 µM)	relative viability ([1]; first compound 0.02 µM)	relative viability ([1]; first compound 0.06325 µM)	relative viability ([1]; first compound 0.2 µM)	relative viability ([1]; first compound 0.6325 µM)	relative viability ([1]; first compound 2 µM)	relative viability ([2]; first compound 0.02 µM)	relative viability ([2]; first compound 0.06325 µM)	relative viability ([2]; first compound 0.2 µM)	relative viability ([2]; first compound 0.6325 µM)	relative viability ([2]; first compound 2 µM)
RERF-LC-KJ	0.371	0.391	0.382	0.371	0.321	0.549	0.621	0.6	0.569	0.472	1.21	1.14	1.22	1.24	1.37	0.434	0.415	0.444	0.474	0.482
NCI-H1975	0.386	0.308	0.291	0.234	0.124	0.643	0.542	0.48	0.456	0.351	0.0911	0.261	0.187	0.338	0.206	0.392	0.378	0.318	0.389	0.402
IA-LM	–	–	–	–	–	0.744	0.604	0.255	0.125	0.12	–	–	–	–	–	–	–	–	–	–
LCLC-97TM1	0.415	0.448	0.383	0.301	0.288	0.722	0.701	0.435	0.225	0.0816	0.669	0.611	0.82	0.809	0.944	0.462	0.408	0.411	0.442	0.428
NCI-H520	0.543	0.666	0.392	0.608	0.199	0.868	0.733	0.68	0.691	0.532	0.204	0.24	0.217	0.211	0.229	0.453	0.503	0.54	0.669	0.533
A-427	0.234	0.286	0.22	0.207	0.137	0.948	0.896	0.723	0.501	0.51	0.849	0.902	–	1.08	1.01	0.261	0.309	–	0.275	0.348
ABC-1	0.236	0.259	0.226	0.213	0.221	0.798	0.898	0.562	0.613	0.349	–	0.531	–	0.678	0.801	0.226	0.242	0.23	0.244	0.21
NCI-H460	0.502	0.332	0.237	0.135	0.041	0.621	0.482	0.376	0.12	0.0929	0.0416	0.0387	0.0352	0.0268	0.0415	0.553	0.526	0.52	0.56	0.571
NCI-H1395	0.479	0.445	0.432	0.416	0.328	0.78	0.627	0.593	0.415	0.384	0.876	0.595	0.521	0.696	0.669	0.436	0.429	0.365	0.446	0.414
NCI-H23	0.782	0.738	0.312	0.583	0.303	0.501	0.537	0.277	0.323	0.126	0.232	0.178	–	0.194	0.222	0.829	0.77	0.693	0.718	0.797
LOU-NH91	0.685	0.752	0.661	0.364	0.294	0.893	0.802	0.766	0.809	0.411	0.335	0.302	0.352	0.307	0.266	0.727	0.624	0.623	0.66	0.645
NCI-H2009	0.394	0.302	0.231	0.213	0.215	0.76	0.634	0.341	0.354	0.336	0.997	1.03	1.05	1.02	1.09	0.486	0.518	0.509	0.502	0.513
A549	0.166	0.153	0.125	0.116	0.058	–	–	–	–	–	–	–	–	–	–	0.16	0.101	0.181	0.114	0.183
NCI-H1563	0.637	0.636	0.676	0.597	0.59	–	–	–	–	–	0.506	0.537	0.541	0.483	0.464	0.627	0.64	0.635	0.672	0.684
HCC-366	0.57	0.574	0.372	0.49	0.226	0.354	0.291	0.357	0.356	0.106	–	–	–	–	–	0.578	0.641	0.602	0.664	0.667
NCI-H1648	–	–	–	–	–	0.422	0.479	0.488	0.3	0.376	–	–	–	–	–	–	–	–	–	–
NCI-H1623	0.588	0.48	0.291	0.396	0.634	–	–	–	–	–	0.422	0.473	0.428	0.446	0.289	0.631	0.537	0.546	0.513	0.564
HCC-78	0.678	0.501	0.482	0.489	0.401	0.447	0.377	0.382	0.433	0.414	–	–	–	–	–	0.545	0.709	–	0.525	0.614
